The values below are quoted from earlier work in article PMC6247064 (Cancer Science, 2018).

One data set concerns advanced solid tumors. The following applies: cited from earlier work.
Data set [1] relates to BRCA wild-type recurrent high-grade serous ovarian cancer. The following applies: phase 2, 8 of 28 women, intention-to-treat population; cited from earlier work.
A further data set has as its system Calu-6 xenograft. The following applies: cited from earlier work.

SMILES strings stand for the structures. Values after ≈ are worked out from the molar mass of the structure shown.

Turning to `COc1cccc(OCCCN)c1-c1cc(Nc2cnc(C#N)cn2)n[nH]1` [Prexasertib], the “Best overall response of stable disease” value with advanced solid tumors (US phase 1, 15 of 45 patients) was 33%. Also, the Partial response in the data set with advanced solid tumors (US phase 1, 45 patients, Two patients (SCC of the anus, SCC of the head and neck)) is listed as 4%. For the same compound, the Recommended prexasertib dose with advanced solid tumors (US phase 1, administered once every 14 days) is 105 mg/m^2. In addition, the “Patients with tumor shrinkage” value in the data set with advanced solid tumors (phase 1 trial in non-Japanese patients) was 10 of 34. Also, the Partial responses in data set [1] is recorded as 29%. Moreover, the “IC50 derived from the single-agent Calu-6 xenograft model” value in the data set with Calu-6 xenograft (plasma concentration) is 0.0141 µg/mL (≈ 0.0386 µM). Also, the “Median AUC(0-72) predicted to achieve the maximal tumor response” value with Calu-6 xenograft (predicted from Calu-6 xenograft PK/pharmacodynamic model, monotherapy) is 1896 ng·h/mL.
